# Test results as given in US20260183283A1 (priority 2022, published 2026).
# Tests used:
# clinical = conditions: for half-life / AUC / Cmax / Tmax: human, plasma; for AUC: AUCtau; for AUC / Cmax: arithmetic mean
# From the text: Following the screening period, eligible subjects will be admitted to the clinical unit on Day 1. All subjects will receive the study drug for 7 days starting on Day 1. […] Dosing frequency and any instructions regarding meal intake will depend on data from the SAD cohorts and will be provided in a separate document. The dosing duration may be increased to up to 14 days to allow for achievement of 3 half-lives. […] Subjects will return for an EOS visit on Day 15 or up to approximately 5 half-lives up to a maximum of Day 42 (whichever is longer).
# The tentative starting dose for this portion of the study will be 30 mg daily. Dose escalation for Cohort 2 and beyond will be based on the safety, tolerability, and PK of the previous cohort. […] Planned doses for subsequent cohorts are 60, 120, 200, and 300 mg daily; the maximum dose increment between cohorts will be no more than 2 times the previous dose.
# in vivo [1] = conditions: rat
# in vivo [2] = conditions: mouse, rat, dog, monkey, iv
# [3] = 60 mg, fed vs fasted
# Description: All subjects will receive 2 doses of study drug in a crossover manner, separated by a washout period of 7 days or 5 half-lives up to 21 days (whichever is longer).
# Study drug will then be administered along with a standardized high-calorie (approximately 800 to 1000 calories) breakfast. The meal will be ingested entirely within 30 minutes, and study drug will be administered 30 minutes after the start of the meal.
# [4] = tested on: Pank1,2 neural knockout mice; assay: Total forebrain CoA in Pank1,2 neural knockout mice; type: in vivo; conditions: 75 ppm in chow from postnatal day 14; assessed at postnatal day 45
# From the text: (§1) Water was supplied ad libitum. Mice were maintained on a chow diet with purified ingredients containing 19% kcal protein, 66.5% kcal carbohydrate and 14.4% kcal fat (Envigo #TD170542) which was similar to standard rodent chow (LabDiet #5013). The mice were randomized into the treatment arms. […] However, this is an approximation, as SynCre^+Pank1^−/−Pank2^−/− mice both weigh less and eat less than wild-type mice. […] At the end of the dark cycle, individual mice were placed in an open rectangular arena (36.8 cm×43.2 cm) for 5 min during the light cycle and motor activity was evaluated using a video tracking system provided by HVS Image with associated 2100 Plus software (San Diego, CA, USA). Each animal was placed in the center of the arena under standard overhead lighting and the total distance traveled and the percentage of time in motion were recorded. The behaviors of age-matched control animals, treated with Compound (I) and untreated, were quantified and compared. […] Liver, forebrain and hindbrain were quickly excised, approximately 30-50 mg pieces were immediately flash frozen in liquid N2 and stored frozen at −80° C. until analysis. The plasma and tissue samples were used for Compound (I) and total CoA determinations.
# Statistical significance was determined using a two-tailed Student's t test (GraphPad software) and P-values are shown about the bars, N=6-8. […]
# [5] = tested on: Pcca^−/−PCCA(A138T)^tg/0 mice; assay: Total CoA in liver and brain of Pcca−/−PCCA(A138T)tg/0 mice; type: in vivo; conditions: 22.5 ppm (3 mg/kg) in chow for 30 days after weaning
# From the text: Water was supplied ad libitum.
# [6] = tested on: Pank1,2 neural knockout mice; assay: Open field test in Pank1,2 neural knockout mice; type: in vivo; conditions: 22.5 ppm in chow from postnatal day 14; postnatal day 45
# Description: The mice were maintained at 72°±2° F., humidity 50%±10% and a 14-hour light/10-hour dark cycle with the dark cycle starting at 20:00 hrs. Water was supplied ad libitum. […] The mice were randomized into the treatment arms. […] Each animal was placed in the center of the arena under standard overhead lighting and the total distance traveled and the percentage of time in motion were recorded.
# [7] = oral gavage 10 mg/animal and 200 mg/animal; tablet or suspension
# PanK = assay: Phase 1 pharmacodynamic biomarkers, plasma pantothenate and whole blood acetyl-CoA; type: in vivo, human; conditions: MAD cohorts at steady-state
# From the text: Pharmacodynamic biomarker assessments will include whole blood acetyl-CoA, plasma pantothenate, and other exploratory PD biomarkers.
# Pharmacodynamic biomarker samples will be analyzed using a validated assay for the PD assessments.
# In MAD cohorts at steady-state, decreases in the PanK substrate, pantothenate, were observed, concurrent with increases in the PanK product, acetyl-CoA, in whole blood.
# [8] = tested on: Pank1,2 neural knockout mice; assay: Body weight of Pank1,2 neural knockout mice; type: in vivo; conditions: 75 ppm in chow from postnatal day 14
# From the text: as §1
# Following analysis of movement, all animals were sacrificed at postnatal Day 45 for examination of tissue CoA levels.
# [9] = rat, in vivo
# [10] = tested on: Pcca^−/−PCCA(A138T)^tg/0 mice; assay: Plasma and urine acyl carnitines in Pcca−/−PCCA(A138T)tg/0 mice; type: in vivo
# Description: The mice were maintained at 72′±2° F., humidity 50%±10% and a 14-hour light/10-hour dark cycle with the dark cycle starting at 20:00 hrs. Water was supplied ad libitum. The mice were randomized into the treatment arms to achieve a normal weight distribution. […] Blood was collected in ethylenediaminetetraacetic acid (EDTA) at P50 by cardiac puncture from isoflurane-anesthetized animals, plasma was prepared and stored frozen at −80° C. until analysis. Liver, brain, and heart were quickly excised, immediately flash frozen in liquid nitrogen and stored frozen at −80° C. until analysis.
# Metabolites from Urine and Plasma: Water was added to thawed 24-hr urine samples to a final volume of 1 mL for each mouse. To 100 μL of urine or 20 μL of plasma, warfarin standard was added at a final concentration of 0.2 μM and the sample was incubated at −80° C. for 1 hour. The sample was centrifuged at 6000×g for 10 minutes to remove precipitants and the supernatant was analyzed by LC/MS/MS. Analysis was performed using a Shimadzu Prominence UFLC attached to a QTrap 4500 equipped with a Turbo V ion source (Sciex). […] The system was controlled by the Analyst® software (Sciex) and analyzed with MultiQuant™ 3.0.2 software (Sciex). The relative amount of metabolite was normalized to the amount of warfarin then the ratio to creatinine was calculated.
# [11] = From the text: Safety and tolerability endpoints will include monitoring and recording of AEs, clinical laboratory test results (hematology, serum chemistry, and urinalysis), vital sign measurements, 12-lead ECG results, and physical examination findings. The PA/MMA cohort will also be screened for suicidal ideation using the C-SSRS.
# [12] = tested on: C57BL/6J (wild-type) mice; conditions: oral gavage QD 0.1, 1, 3, 10 or 30 mg/kg for one week; four hours after last dose
# Description: Tissue Total CoA Determinations: Total CoA was quantified as described earlier. Either frozen brain or liver tissue (30-40 mg) was homogenized in 1 mM potassium hydroxide (KOH) to hydrolyze all the acyl chains and then the CoA was derivatized with monobromobimane (mBBr). […] The retention time was determined by running a CoA standard before each set of samples. Total CoA was quantified using a standard curve generated with known amounts of CoA.
# Control animals were administered 0.5% methylcellulose QD for one week. Four hours after the last dose, the animals were sacrificed, plasma and tissues were collected, and CoA levels were determined in tissues. […] Statistical significance was determined for total CoA using a Student's t-test calculated with GraphPad software and P-values compared to the control animals are noted on the figure panels.
# [13] = 22.5 ppm (3 mg/kg) in chow for 30 days after weaning
# Description: The mice were maintained at 72′±2° F., humidity 50%±10% and a 14-hour light/10-hour dark cycle with the dark cycle starting at 20:00 hrs. Water was supplied ad libitum. The mice were randomized into the treatment arms to achieve a normal weight distribution. […] However, this is merely an approximation, as Pcca^−/−PCCA(A138T)^tg/0 mice weigh less but also eat less than wild-type mice. […] Blood was collected in ethylenediaminetetraacetic acid (EDTA) at P50 by cardiac puncture from isoflurane-anesthetized animals, plasma was prepared and stored frozen at −80° C. until analysis. Liver, brain, and heart were quickly excised, immediately flash frozen in liquid nitrogen and stored frozen at −80° C. until analysis.
# The samples were incubated on ice for 30 min. Samples were spun at 3500×g for 10 min to pellet debris, and the supernatant was transferred to a glass vial. […] 30 mg of tissue was homogenized in 2 mL of 80% methanol containing 0.1 μM warfarin and incubated at −80° C. for 4 hr. Samples were spun at 3500×g for 10 min to pellet debris, supernatant was transferred to a glass tube and dried down using a Savant SPD1010 Speed-Vac (Thermo Scientific) overnight. Samples were resuspended in 400 μL of 80% acetonitrile to a final concentration of 0.5 μM and transferred to a glass vial. […]
# [14] = of all Compound (I) treated subjects
smiles,measurement,setting,value
"O=C(Cc1ccc(C2CC2)c(F)c1)N1CCN(c2ccc(Cl)nn2)CC1 [Compound (I), 1-(4-(6-chloropyridazin-3-yl)piperazin-1-yl)-2-(4-cyclopropyl-3-fluorophenyl)ethan-1-one]",Urinary excretion of Compound (I),clinical; healthy subjects,negligible
same,half-life,clinical; oral,6 to 8 h
same,half-life,"clinical; oral, 30 mg",7.55 h
same,AUC,"clinical; oral, 30 mg, 30 mg QD, Day 1, AUC0-24",476 ng·h/mL
same,AUC,"clinical; oral, 30 mg, 30 mg QD, Day 7, AUC0-24",913 ng·h/mL
same,Cmax,"clinical; oral, 30 mg, 30 mg QD, Day 1",98.3 ng/mL
same,Cmax,"clinical; oral, 30 mg, 30 mg QD, Day 7",158 ng/mL
same,Tmax,"clinical; oral, 30 mg, Tmax, 30 mg QD, Day 1, median",1.5 h
same,Tmax,"clinical; oral, 30 mg, Tmax, 30 mg QD, Day 7, median",1.5 h
same,AUC,"clinical; oral, 50 mg, 50 mg Q12H, Day 1, AUC0-12",925 ng·h/mL
same,Cmax,"clinical; oral, 50 mg, 50 mg Q12H, Day 1",155 ng/mL
same,Tmax,"clinical; oral, 50 mg, Tmax, 50 mg Q12H, Day 1, median",1.5 h
same,half-life,"clinical; oral, 60 mg",6.7 h
same,AUC,"clinical; oral, 60 mg, 60 mg QD, Day 1, AUC0-24",1670 ng·h/mL
same,AUC,"clinical; oral, 60 mg, 60 mg QD, Day 7, AUC0-24",4050 ng·h/mL
same,Cmax,"clinical; oral, 60 mg, 60 mg QD, Day 1",240 ng/mL
same,Cmax,"clinical; oral, 60 mg, 60 mg QD, Day 7",505 ng/mL
same,Tmax,"clinical; oral, 60 mg, Tmax, 60 mg QD, Day 1, median",1.75 h
same,Tmax,"clinical; oral, 60 mg, Tmax, 60 mg QD, Day 7, median",2.01 h
same,half-life,"clinical; oral, 70 mg",6.83 h
same,AUC,"clinical; oral, 70 mg, 70 mg QD, Day 7, AUC0-24",2950 ng·h/mL
same,Cmax,"clinical; oral, 70 mg, 70 mg QD, Day 1",205 ng/mL
same,Cmax,"clinical; oral, 70 mg, 70 mg QD, Day 7",400 ng/mL
same,Tmax,"clinical; oral, 70 mg, Tmax, 70 mg QD, Day 1, median",1.5 h
same,Tmax,"clinical; oral, 70 mg, Tmax, 70 mg QD, Day 7, median",1.5 h
same,Tmax,"clinical; po, Tmax after oral administration, healthy subjects, over cohorts",1 to 2 h
same,Increase in exposure with dose,clinical; total daily dose increased from 30 mg to 100 mg,more than dose-proportional
same,clearance,in vivo [1]; iv,32.6 mL/min/kg
same,bioavailability,in vivo [1]; po,35.2%
same,half-life,in vivo [2],1 to 3 h
same,Delay of absorption by food,[3],~2 h
same,Increase in plasma exposure with food,[3],~1.3 fold
same,Increase of forebrain CoA levels vs untreated mice,[4],~70%
same,Increase of brain total CoA compared to untreated mice,[5]; brain,~44%
same,Increase of liver total CoA compared to untreated mice,[5]; liver,~45%
same,Movement in open field,[6],some improvement in movement
same,Dose proportionality of exposure as defined by AUC0-24,[7],dose proportional
same,Dose proportionality of exposure as defined by Cmax,[7],close to dose proportional
same,Plasma Compound (I) concentration up to which increases in whole blood acetyl-CoA were observed,PanK,~200 mg/mL
same,Plasma pantothenate,PanK; healthy adult subjects,decreased
same,Whole blood acetyl-CoA,PanK; healthy adult subjects,increased
same,Body weight gain compared with untreated mice,[8],significantly increased
same,Accumulation after multiple doses,[9],Less than 2 fold
same,Exposures in male rats versus female rats at the same doses,[9],lower exposures than female rats
same,Decreased free carnitine and C2-carnitine levels in plasma and urine,[10]; 22.5 ppm (3 mg/kg) in chow for 30 days after weaning,rescued
same,C3-carnitine in plasma,"[10]; 22.5 ppm (3 mg/kg) in chow, plasma",decreased
same,Tolerability,"[11]; 60 healthy adult subjects, Phase 1 study",generally well-tolerated
same,Mild treatment-related TEAE abdominal pain,[11]; [14],1.7%
same,Mild treatment-related TEAE headache,[11]; [14],5%
same,Mild treatment-related TEAE nausea,[11]; [14],1.7%
same,Brain (forebrain and hindbrain) total CoA response,[12],dose-responsive increase
same,"Distribution of Compound (I) into liver, brain and heart",[13],"well distributed into the liver, and to a lesser extent in brain and heart"
same,Exposure in female mice versus males,[13],higher exposures than males
